Columns and labels:
[1] = system: mammary tumors; experiment: Tumor development in DMBA-treated rats given weekly oral intubations of artemisinin; type: in vivo, Female Sprague-Dawley rats; details: for Percentage of Animals with Tumors: artemisinin 10 mg/kg weekly oral intubation
Procedure: This Example describes a representative method for preventing or slowing the development of cancer in rats exposed to a carcinogen by administering artemisinin by weekly oral intubations.
Materials and Methods: Female Sprague-Dawley rats were administered a single intragastric dose of the carcinogen 7,12-dimethylbenz[a]anthracene (DMBA; Sigma Chemicals, St Louis, Mo.; 50 mg/kg body weight) suspended in olive oil (Sigma Chemicals, St Louis, Mo.; 25 mg/ml). Animals were randomly assigned to two treatment groups to receive either weekly oral intubations of artemisinin (Holley Pharmaceuticals, Fullerton, Calif.; 10 mg/kg at 10 mg/ml of olive oil) or olive oil (control). Artemisinin treatment began a week after DMBA administration. Animals were palpated for the presence of mammary tumors once weekly. The time and site of detection and size were recorded for each tumor in an animal.

[2] = system: mammary tumors; experiment: Tumor development in DMBA-treated rats given artemisinin mixed in food; type: in vivo, Female rats; details: artemisinin 0.05% in food, approximately 10 mg/kg/day
Source text: This Example describes a representative method for preventing or slowing the development of cancer in rats exposed to a carcinogen by providing artemisinin mixed in food.
Materials and Methods: Female rats were similarly treated with the carcinogen DMBA, as described in EXAMPLE 1. The rats were randomly assigned to two treatment groups. Artemisinin (0.05%) was mixed in the food of one group of animals starting the day immediately after DMBA treatment. Daily intake of artemisinin, based on the amount of food eaten each day, was estimated to be approximately 10 mg/kg/day. The other group of animals (controls) was given regular rat food.

[3] = cancer patient; oral 50 mg per day, intramuscular 60 mg/day, over 9 months; cited from earlier work

C[C@@H]1CC[C@H]2[C@@H](C)C(=O)O[C@@H]3O[C@@]4(C)CC[C@@H]1[C@]32OO4 [Artemisinin, artemisinin]
Percentage of Animals with Tumors ([1]; week 6 after DMBA): 0% | Percentage of Animals with Tumors ([1]; week 6 after DMBA, listed as artemisinin): none | Percentage of Animals with Tumors ([1]; week 7 after DMBA): 9% | Percentage of Animals with Tumors ([1]; week 9 after DMBA): 9% | Percentage of Animals with Tumors ([1]; week 10 after DMBA): 9% | Percentage of Animals with Tumors ([1]; week 11 after DMBA): 9% | Percentage of Animals with Tumors ([1]; week 12 after DMBA): 27% | Percentage of Animals with Tumors ([1]; week 13 after DMBA): 45% | Percentage of Animals with Tumors ([1]; week 16 after DMBA): 45% | Percentage of Animals with Tumors ([1]; week 17 after DMBA): 45% | Percentage of Animals with Tumors ([1]; week 20 after DMBA): 54% | Percentage of Animals with Tumors ([1]; week 29 after DMBA): 64% | Percentage of Animals with Tumors ([1]; week 31 after DMBA): 64% | Percentage of Animals with Tumors ([1]; week 38 after DMBA): 64% | Appearance of tumors in carcinogen-treated animals ([1]; weekly artemisinin treatment vs olive oil controls): delayed the appearance of tumors | Percentage of Animals with Tumors ([2]; week 6 after DMBA): 0% | Percentage of Animals with Tumors ([2]; week 7 after DMBA): 0% | Percentage of Animals with Tumors ([2]; week 8 after DMBA): 0% | Percentage of Animals with Tumors ([2]; week 9 after DMBA): 0% | Percentage of Animals with Tumors ([2]; week 10 after DMBA): 0% | Percentage of Animals with Tumors ([2]; week 10 after DMBA, listed as artemisinin): none

C[C@H]1[C@H](OC(=O)CCC(=O)O)O[C@@H]2O[C@@]3(C)CC[C@H]4[C@H](C)CC[C@@H]1[C@@]24OO3 [artesunate]
Adverse side effects [3]: No apparent adverse side effects
